# Read-outs that look alike come from different tables or passages of the source.
# How the values were obtained:
# Assay type in all cases: cell-based
# [1] = system: Providencia spp.(all); test: microbe, parasite or virus in culture; details: Providencia spp.(all)
# [2] = system: Citrobacter freundii (AmpC); test: microbe, parasite or virus in culture; details: Citrobacter freundii
# [3] = system: P. aeruginosa; test: In vitro activity against P. aeruginosa clinical isolates; details: for % susceptible: P. aeruginosa, 2,008 clinical isolates, GSK2251052 based on potential susceptible breakpoint of ≦4 μg/mL
# Procedure: GSK2251052 was tested for activity against P. aeruginosa, and its activity was compared to other antibiotics of known activity. The results are shown below in Tables 2a and 2b. Of 2,008 clinical isolates tested (from 2009-2010 subjects, of which 40% were from North America) greater than 90% were susceptible to GSK2251052 based on a potential susceptible breakpoint of ≦4 μg/mL.
# [4] = system: E. coli isolates from subject E. coli 1; test: MIC in M9 minimal media of clinical isolates, subject E. coli 1; details: Escherichia coli, read-out: MIC in M9 Minimal Media
# Procedure: The E. coli and P. mirabilis strains were cultured on Trypticase Soy Agar/5% blood plates (Becton Dickinson BBL), in cation adjusted Mueller-Hinton II Broth, or in M9 minimal salts (Becton Dickinson) broth containing 0.4% glucose and 200 uM MgSO4. L-Norvaline (Sigma-Aldrich) was prepared at a concentration of 6.4 mg/ml in […], in a final volume of approx 0.5 ml, and stored at −20° C. until required.
# Minimum inhibitory concentrations (MICs) were determined using the CLSI (Clinical and Laboratory Standards Institute, formerly NCCLS) recommended broth microdilution methodology [NCCLS, 2003] using defined media.
# Throughout this study E. coli and P. mirabilis strains were cultured on Trypticase Soy Agar/5% blood plates, on M9 salts/1.2% Bacto Agar plates, in Cation Adjusted Mueller-Hinton II Broth (CAMHB), or in M9 Minimal Salt Broth containing 0.4% glucose and 200 μM MgSO4. GSK2251052 and norvaline were prepared at a concentration of 6.4 mg/mL (free base) in 100% DMSO and 100% water respectively, aliquoted in 0.5 mL individual stocks, and stored at −20° C. until required.
# Minimum inhibitory concentrations (MICs) were determined for each organism using the CLSI (Clinical and Laboratory Standards Institute) recommended broth microdilution methodology [CLSI, 2009].
# Strains tested are detailed in Table 15. MICs for norvaline and GSK2251052 could only be determined for E. coli isolates from subject E. coli 1 (Table 16) as M9 Minimal Media could not sustain growth of E. coli isolates from subject E. coli 2 (isolates 2a-2o) or P. mirabilis isolates (isolates 3a-3c) from subject E. coli 3. […] This phenotype is consistent with a mutation in the editing site of LeuRS, which could also be responsible for the concomitant decrease in susceptibility to GSK2251052 observed in isolates from Days 2, 3 and 4 (Table 16).
# [5] = system: Klebsiella spp. (WT); test: microbe, parasite or virus in culture; details: Klebsiella spp. (WT)
# [6] = system: Morganella morganii (AmpC); test: microbe, parasite or virus in culture; details: Morganella morganii
# [7] = system: K. pneumoniae ATCC 13883 wild type and mutants; test: MIC in M9 minimal media; details: Klebsiella pneumoniae, read-out: MICs in M9 minimal media
# Procedure: (§1) Spontaneous Resistance Frequency was determined in vitro for GSK2251052 and the resistance mutants in E. coli ATCC 25922, K. pneumoniae ATCC 13883, and P. aeruginosa ATCC 27853 strains were characterized. GSK2251052 was prepared as described in U.S. Pat. No. 7,816,344 (the entire contents of which are hereby incorporated by reference herein). LB broth, Mueller Hinton II broth (adjusted), and Difco noble agar were obtained from Becton Dickinson (Cockeysville, Md., USA). M9 minimal broth containing 1×M9 salt, 0.5 μg/ML thiamine, 1 mM MgSO4, 0.1 mM CaCl2, 2% glucose, was obtained from Teknova (Hollister, Calif., USA). Antibacterial agents ciprofloxacin, ceftazidime, chloramphenicol, gentamycin, kanamycin, polymixin B, tobramycin and trimethoprim, and amino acids were obtained from Sigma Chemicals (St. Louis, Mo., USA). Strains were obtained from ATCC (Manassas, Va., USA).
# (§2) Susceptibility tests were performed following the recommendations for aerobic bacteria (M7-A7) from the Clinical and Laboratories Standards Institute (CLSI).
# (§3) The aminoacyl-tRNA synthetase enzyme, LeuRS, ensures the correct amino acid, leucine, is attached to tRNA^Leu. The LeuRS synthetic active site is capable of aminoacylating tRNA^Leu with amino acids structural similar to leucine (norvaline, norleucine, isoleucine and methionine). These mischarged tRNA^Leu are hydrolyzed by the editing domain, thus preventing the deleterious incorporation of incorrect amino acids into the growing polypeptide. The laboratory generated mutants were further tested for their ability to grow in defined media with exogenously added amino acids. Norvaline and norleucine, structurally similar to leucine, were tested in M9 minimal media. […]
# [8] = system: E. coli ATCC 25922 wild type and mutants; test: MIC in M9 minimal media; details: Escherichia coli, read-out: MICs in M9 minimal media
# Procedure: as §1, §2, §3
# [9] = system: P. aeruginosa ATCC 27853 wild type and mutants; test: MIC in M9 minimal media; details: Pseudomonas aeruginosa, read-out: MICs in M9 minimal media
# Procedure: as §1, §2, §3
# [10] = system: Enterobacter cloacae (AmpC); test: microbe, parasite or virus in culture; details: Enterobacter cloacae
# [11] = GSK2251052 breakpoint, read-out: susceptibility category of MIC90
# [12] = read-out: susceptibility category of MIC90
# [13] = Pseudomonas aeruginosa, P. aeruginosa clinical isolates
compound,measurement,setting,value
"NC[C@H]1OB(O)c2c(OCCCO)cccc21 [GSK2251052, (S)-3-aminomethyl-7-(3-hydroxy-propoxy)-3h-benzo[c][1,2]oxaborol-1-ol]",MIC90,"[1]; 68 isolates, read-out: MIC90",1 µg/mL
same,susceptibility category of MIC90,[1]; [11],< 4 µg/mL
same,MIC90,[2],1 µg/mL
same,MIC90,[2]; [12],< 4 µg/mL
same,MIC Range,[3]; P. aeruginosa clinical isolates,0.06 to 64 µg/mL
same,% susceptible,[3],greater than 90%
same,% susceptible,[3]; listed as GSK2250152,92.8%
same,MIC50,[3]; [13],2 µg/mL
same,MIC90,[3]; [13],4 µg/mL
same,MIC,"[4]; 24 h, Isolate 1a, Blood, Day 1",1 µg/mL
same,MIC,"[4]; 24 h, Isolate 1b, Urine, Day 1",1 µg/mL
same,MIC,"[4]; 48 h, Isolate 1c, Blood, Day 2",32 µg/mL
same,MIC,"[4]; 96 h, Isolate 1e, Blood, Day 4",32 µg/mL
same,MIC,"[4]; Isolate 1d, Blood, Day 3",32 µg/mL
same,MIC90,"[5]; 159 isolates, read-out: MIC90",1 µg/mL
same,MIC90,[5]; [11],< 4 µg/mL
same,MIC90,[6],2 µg/mL
same,MIC90,[6]; [12],< 4 µg/mL
same,MIC,"[7]; ATCC13883, K 104(leuRS D345Y)",> 256 µg/mL
same,MIC,"[7]; ATCC13883, K 105(leuRS G229R)",> 256 µg/mL
same,MIC,"[7]; ATCC13883, K 107(leuRS S227F)",32 µg/mL
same,MIC,"[7]; ATCC13883, K 108(leuRS T248P)",> 256 µg/mL
same,MIC,"[7]; ATCC13883, K 110(leuRS V338L)",64 µg/mL
same,MIC,"[7]; ATCC13883, Klebsiella pneumoniae ATCC13883",2 µg/mL
same,MIC,"[8]; ATCC25922, E 101(leuRS Y246H)",64 µg/mL
same,MIC,"[8]; ATCC25922, E 102(leuRS D345G)",> 256 µg/mL
same,MIC,"[8]; ATCC25922, E 107(leuRS G229S)",128 µg/mL
same,MIC,"[8]; ATCC25922, E. coli ATCC25922",1 µg/mL
same,MIC,"[9]; ATCC27853, P 101 (leuRS T256P)",128 µg/mL
same,MIC,"[9]; ATCC27853, P 106 (leuRS V342M)",> 256 µg/mL
same,MIC,"[9]; ATCC27853, P 108 (leuRS T252P)",> 256 µg/mL
same,MIC,"[9]; ATCC27853, P. aeruginosa ATCC27853",4 µg/mL
same,MIC90,[10],0.5 µg/mL
same,MIC90,[10]; [12],< 4 µg/mL

# — patent publication US9889146B2, “Benzoxaborole compounds and uses thereof” (priority 2012, dated 2018)
